Measurements published in patent publication US7910751B2, “Heterocyclidene acetamide derivative” (Mochida Pharmaceutical Co., Ltd., priority 2005, dated 2011).

Biological target: T1, human TRPV1 (Homo sapiens, UniProt Q8NER1)
T1 construct: expressed in transfected cells; host or cells: CHO-K1
Assay: Measurement of capsaicin-induced Ca influx in human TRPV1 transformed CHO cell line using FDSS-6000
Format: cell-based
Conditions: concentration at which the capsaicin concentration-reaction curve is shifted two times to the right, human TRPV1 transformed CHO cells

T1 sequence (Q8NER1 whole entry): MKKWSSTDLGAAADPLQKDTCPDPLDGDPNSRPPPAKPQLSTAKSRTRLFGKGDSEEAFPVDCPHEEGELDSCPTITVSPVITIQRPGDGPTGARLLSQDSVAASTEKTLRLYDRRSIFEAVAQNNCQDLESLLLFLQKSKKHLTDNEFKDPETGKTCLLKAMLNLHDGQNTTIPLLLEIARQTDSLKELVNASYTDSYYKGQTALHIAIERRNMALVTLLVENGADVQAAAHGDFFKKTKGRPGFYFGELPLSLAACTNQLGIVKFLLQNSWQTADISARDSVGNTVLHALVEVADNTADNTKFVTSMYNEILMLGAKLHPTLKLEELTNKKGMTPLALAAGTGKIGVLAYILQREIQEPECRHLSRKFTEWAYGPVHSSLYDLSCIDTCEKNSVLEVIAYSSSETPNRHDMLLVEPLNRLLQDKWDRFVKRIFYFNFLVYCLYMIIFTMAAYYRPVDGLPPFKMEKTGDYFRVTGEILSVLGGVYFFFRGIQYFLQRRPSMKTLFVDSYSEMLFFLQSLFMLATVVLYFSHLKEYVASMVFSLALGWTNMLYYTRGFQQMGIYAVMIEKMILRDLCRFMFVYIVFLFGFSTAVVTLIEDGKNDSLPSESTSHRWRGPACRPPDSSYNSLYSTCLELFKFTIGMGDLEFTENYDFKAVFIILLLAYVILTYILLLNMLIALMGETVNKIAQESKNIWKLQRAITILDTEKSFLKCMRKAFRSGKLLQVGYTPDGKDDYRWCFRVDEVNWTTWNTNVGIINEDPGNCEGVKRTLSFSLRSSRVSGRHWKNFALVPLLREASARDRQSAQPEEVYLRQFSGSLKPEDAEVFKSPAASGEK

SMILES | A2 VALUE
O=C(/C=C1\CCCOc2cc(C(F)(F)F)ccc21)Nc1cccc2c1CC(O)CN2 (centres unmarked) [Example 218, (E)-2-(8-trifluoromethyl-3,4-dihydrobenzo[b]oxepin-5(2H)-ylidene)-N-(3-hydroxy-1,2,3,4-tetrahydroquinolin-5-yl)acetamide] | A (compounds of the present invention having an A2 value of less than 100 nM are represented by A)
O=C(/C=C1\CCCOc2cc(C(F)(F)F)ccc21)Nc1cccc2c1CC(O)CN2 (centres unmarked) [Example 219, (E)-2-(8-trifluoromethyl-3,4-dihydrobenzo[b]oxepin-5(2H)-ylidene)-N-(3-hydroxy-1,2,3,4-tetrahydroquinolin-5-yl)acetamide] | A (compounds of the present invention having an A2 value of less than 100 nM are represented by A)
CC1(O)CCc2cccc(NC(=O)/C=C3\CCCOc4cc(C(F)(F)F)ccc43)c2C1 (centres unmarked) [Example 220, (E)-2-(8-trifluoromethyl-3,4-dihydrobenzo[b]oxepin-5(2H)-ylidene)-N-(7-hydroxy-7-methyl-5,6,7,8-tetrahydronaphthalen-1-yl)acetamide] | A (compounds of the present invention having an A2 value of less than 100 nM are represented by A)
Cc1sc2cnccc2c1NC(=O)/C=C1\CCCOc2cc(C(F)(F)F)ccc21 [Example 221, (E)-2-(8-trifluoromethyl-3,4-dihydrobenzo[b]oxepin-5(2H)-ylidene)-N-(2-methylthieno[2,3-c]pyridin-3-yl)acetamide] | A (compounds of the present invention having an A2 value of less than 100 nM are represented by A)
O=C(/C=C1\CCCOc2cc(C(F)(F)F)ccc21)Nc1ncc(CO)cc1Cl [Example 224, (E)-2-(8-trifluoromethyl-3,4-dihydrobenzo[b]oxepin-5(2H)-ylidene)-N-(3-chloro-5-hydroxymethyl-2-pyridyl)acetamide] | B (compounds having an A2 value of 100 nM or more are represented by B)
O=C(/C=C1\CCCOc2cc(C(F)(F)F)ccc21)NCCc1cccc2c1CC(O)CC2 (centres unmarked) [Example 226, (E)-2-(8-trifluoromethyl-3,4-dihydrobenzo[b]oxepin-5(2H)-ylidene)-N-(2-(7-hydroxy-5,6,7,8-tetrahydronaphthalen-1-yl)ethyl)acetamide] | A (compounds of the present invention having an A2 value of less than 100 nM are represented by A)
CC(CNC(=O)/C=C1\CCCOc2cc(C(F)(F)F)ccc21)c1cccc2c1CC(O)CC2 (centres unmarked) [Example 227, (E)-2-(8-trifluoromethyl-3,4-dihydrobenzo[b]oxepin-5(2H)-ylidene)-N-(2-(7-hydroxy-5,6,7,8-tetrahydronaphthalen-1-yl)propyl)acetamide] | A (compounds of the present invention having an A2 value of less than 100 nM are represented by A)
O=C(/C=C1\CCCOc2cc(C(F)(F)F)ccc21)Nc1cccc(N2CCCC2CO)c1 (centres unmarked) [Example 229] | B (compounds having an A2 value of 100 nM or more are represented by B)
O=C(/C=C1\CCCOc2cc(C(F)(F)F)ccc21)Nc1ccc2c(c1)N(C(=O)CO)CCO2 [Example 231] | B (compounds having an A2 value of 100 nM or more are represented by B)
O=C(/C=C1\CCCOc2cc(C(F)(F)F)ccc21)Nc1ccc2c(c1)N(CCO)CCO2 [Example 233] | A (compounds of the present invention having an A2 value of less than 100 nM are represented by A)
O=C(/C=C1\CCCOc2cc(C(F)(F)F)ccc21)Nc1ccc2c(c1)N(CCO)C(=O)CO2 [Example 234, (E)-2-(8-trifluoromethyl-3,4-dihydrobenzo[b]oxepin-5(2H)-ylidene)-N-(4-(2-hydroxyethyl)-2H-1,4-benzoxazin-3(4H)-on-6-yl)acetamide] | A (compounds of the present invention having an A2 value of less than 100 nM are represented by A)
O=C(/C=C1\CCOc2nc(C(F)(F)F)ccc21)Nc1cccc2c1CC(O)CC2 (centres unmarked) [Example 238, (E)-2-(7-trifluoromethyl-3,4-dihydro-2H-pyrano[2,3-b]pyridin-4-ylidene)-N-(7-hydroxy-5,6,7,8-tetrahydronaphthalen-1-yl)acetamide] | A (compounds of the present invention having an A2 value of less than 100 nM are represented by A)
O=C(/C=C1\CCCOc2nc(C(F)(F)F)ccc21)Nc1cccc2c1CC(O)CC2 (centres unmarked) [Example 239, (E)-2-(8-trifluoromethyl-2,3,4,5-tetrahydrooxepino[2,3-b]pyridin-5-ylidene)-N-(7-hydroxy-5,6,7,8-tetrahydronaphthalen-1-yl)acetamide] | A (compounds of the present invention having an A2 value of less than 100 nM are represented by A)
CC1(C)N/C(=C\C(=O)Nc2cccc3c2CC(O)CC3)c2ccc(C(F)(F)F)cc2O1 (centres unmarked) [Example 240, (Z)-2-(6-trifluoromethyl-3,3-dimethyl-4-oxa-3,4-dihydro-(2H)-isoquinolin-1-ylidene)-N-(7-hydroxy-5,6,7,8-tetrahydronaphthalen-1-yl)acetamide] | A (compounds of the present invention having an A2 value of less than 100 nM are represented by A)
CC1(C)C/C(=C\C(=O)Nc2cccc3c2CC(O)CC3)c2ccc(C(F)(F)F)cc2O1 (centres unmarked) [Example 241, (E)-2-(7-trifluoromethyl-2,2-dimethylchroman-4-ylidene)-N-(7-hydroxy-5,6,7,8-tetrahydronaphthalen-1-yl)acetamide] | A (compounds of the present invention having an A2 value of less than 100 nM are represented by A)
CC1(C)C/C(=C\C(=O)Nc2cccc3c2CC(O)CC3)c2ccc(C(F)(F)F)cc2O1 (centres unmarked) [Example 242, (E)-2-(7-trifluoromethyl-2,2-dimethylchroman-4-ylidene)-N-(7-hydroxy-5,6,7,8-tetrahydronaphthalen-1-yl)acetamide] | A (compounds of the present invention having an A2 value of less than 100 nM are represented by A)
CC1(C)C/C(=C\C(=O)Nc2cccc3c2CC(O)CC3)c2ccc(C(F)(F)F)cc2O1 (centres unmarked) [Example 243, (E)-2-(7-trifluoromethyl-2,2-dimethylchroman-4-ylidene)-N-(7-hydroxy-5,6,7,8-tetrahydronaphthalen-1-yl)acetamide] | A (compounds of the present invention having an A2 value of less than 100 nM are represented by A)
CC1(C)C/C(=C\C(=O)Nc2cccc3c2CC(O)CN3)c2ccc(C(F)(F)F)cc2O1 (centres unmarked) [Example 244, (E)-2-(7-trifluoromethyl-2,2-dimethylchroman-4-ylidene)-N-(3-hydroxy-1,2,3,4-tetrahydroquinolin-5-yl)acetamide] | A (compounds of the present invention having an A2 value of less than 100 nM are represented by A)
CC1(C)C/C(=C\C(=O)Nc2cccc3c2CC(O)CN3)c2ccc(C(F)(F)F)cc2O1 (centres unmarked) [Example 245, (E)-2-(7-trifluoromethyl-2,2-dimethylchroman-4-ylidene)-N-(3-hydroxy-1,2,3,4-tetrahydroquinolin-5-yl)acetamide] | A (compounds of the present invention having an A2 value of less than 100 nM are represented by A)
CC1(C)C/C(=C\C(=O)Nc2cccc3c2CC(O)CN3)c2ccc(C(F)(F)F)cc2O1 (centres unmarked) [Example 246, (E)-2-(7-trifluoromethyl-2,2-dimethylchroman-4-ylidene)-N-(3-hydroxy-1,2,3,4-tetrahydroquinolin-5-yl)acetamide] | A (compounds of the present invention having an A2 value of less than 100 nM are represented by A)
O=C(/C=C1/CCCOc2cc(C(F)(F)F)ccc21)Nc1ccc2cccnc2c1 [Example 247, (Z)-2-(8-trifluoromethyl-3,4-dihydrobenzo[b]oxepin-5(2H)-ylidene)-N-(quinolin-7-yl)acetamide] | A (compounds of the present invention having an A2 value of less than 100 nM are represented by A)
O=C(/C=C1\CCCOc2cc(C(F)(F)F)c(F)cc21)Nc1cccc2c1CC(O)CC2 (centres unmarked) [Example 248, (E)-2-(7-fluoro-8-trifluoromethyl-3,4-dihydrobenzo[b]oxepin-5-(2H)-ylidene)-N-(7-hydroxy-5,6,7,8-tetrahydronaphthalen-1-yl)acetamide] | A (compounds of the present invention having an A2 value of less than 100 nM are represented by A)
O=C(/C=C1\CC2(CCC2)Oc2cc(C(F)(F)F)ccc21)Nc1cccc2c1CC(O)CC2 (centres unmarked) [Example 251, (E)-2-(7-trifluoromethyl-2,2-cyclobutylchroman-4-ylidene)-N-(7-hydroxy-5,6,7,8-tetrahydronaphthalen-1-yl)acetamide] | A (compounds of the present invention having an A2 value of less than 100 nM are represented by A)
O=C(/C=C1\CC2(CCC2)Oc2cc(C(F)(F)F)ccc21)Nc1cccc2c1CC(O)CN2 (centres unmarked) [Example 252, (E)-N-(3-hydroxy-1,2,3,4-tetrahydroquinolin-5-yl)-2-(7-trifluoromethyl-2,2-cyclobutylchroman-4-ylidene)acetamide] | A (compounds of the present invention having an A2 value of less than 100 nM are represented by A)
O=C(/C=C1\CCCOc2cc(C(F)(F)F)ccc21)Nc1cccc2[nH]ncc12 [Example 253, (E)-2-(8-trifluoromethyl-3,4-dihydrobenzo[b]oxepin-5(2H)-ylidene)-N-(1H-indazol-4-yl)acetamide] | A (compounds of the present invention having an A2 value of less than 100 nM are represented by A)
O=C(/C=C1\CCCOc2cc(C(F)(F)F)ccc21)Nc1cccc2cn[nH]c12 [Example 254, (E)-2-(8-trifluoromethyl-3,4-dihydrobenzo[b]oxepin-5(2H)-ylidene)-N-(1H-indazol-7-yl)acetamide] | A (compounds of the present invention having an A2 value of less than 100 nM are represented by A)
